In the experiment the test system is psoriasis. In words: Case report: psoriasis in a patient treated with midodrine for hypotension.

Results on 1 molecule are retold here after US20090234017A1, “TREATING SKIN DISORDERS” (priority 2005, published 2009).

Structures are written as SMILES. Some results are limits rather than exact numbers.

On to `COc1ccc(OC)c(C(O)CNC(=O)CN)c1` (centres unmarked) [midodrine], for which, for the setting “person with moderate psoriasis, midodrine five mg three times a day for three months”, the “improvement of the patient's psoriasis” value is reported as at least 90%. The “psoriasis after discontinuing use of midodrine” value (same patient, after discontinued use of midodrine) was “psoriasis returned”.
